Experimental data published in article PMC12040169 (PLOS Biology, 2025).

Experiment: in vitro
Details: human, hela cells, % viability
For `Nc1ncc(-c2ccc(C(=O)N3CCOCC3)cc2)cc1C(=O)NCCc1ccc(O)cc1` [CBK158577], the viability at 28.5 h, 10 µM was 92.5%. `CN1CCN(C(=O)c2cc(-c3ccc(C(=O)N4CCOCC4)cc3)cnc2N)CC1` [CBK158584] showed a viability at 28.5 h, 10 µM of 85.6%. Molecule `Nc1ncc(-c2ccc(C(=O)N3CCOCC3)cc2)cc1C(=O)NCc1ccc(S(N)(=O)=O)cc1` [CBK158597] has a viability at 28.5 h, 10 µM of 105%. `CS(=O)(=O)c1ccc(CNC(=O)c2cc(-c3ccc(C(=O)N4CCOCC4)cc3)cnc2N)cc1` [CBK158599] showed a viability at 28.5 h, 10 µM of 93%. `CSCCCNC(=O)c1cncc(-c2ccc(C(=O)N3CCOCC3)cc2)c1` [CBK158610] gave a viability at 28.5 h, 10 µM of 92.7%. `O=C(NCc1ccc(Cl)c(Cl)c1)c1cncc(-c2ccc(C(=O)N3CCOCC3)cc2)c1` [CBK158612] showed a viability at 28.5 h, 10 µM of 98.2%. `O=C(NCc1ccc2c(c1)OCO2)c1cncc(-c2ccc(C(=O)N3CCOCC3)cc2)c1` [CBK158614] showed a viability at 28.5 h, 10 µM of 108%. `O=C(NCCc1ccc(O)cc1)c1cncc(-c2ccc(C(=O)N3CCOCC3)cc2)c1` [CBK158620] gave a viability at 28.5 h, 10 µM of 112%. With `COc1cc(CNC(=O)c2cncc(-c3ccc(C(=O)N4CCOCC4)cc3)c2)cc(OC)c1OC` [CBK158632] the viability at 28.5 h, 10 µM was 114%. With `CCOC(=O)CCNC(=O)c1cncc(-c2ccc(C(=O)N3CCOCC3)cc2)c1` [CBK158645] the viability at 28.5 h, 10 µM was 92.6%. `CCCC1CCN(CC2C=Cc3cc(-c4ccc(S(C)(=O)=O)cc4)ccc3O2)CC1` (stereo not drawn) [CBK158647] showed a viability at 28.5 h, 10 µM of 86.2%. Work on `CCc1ccc(CNC(=O)Cn2cnc(-c3ccc(CN4CCC(C)CC4)cc3)c2)cc1` [CBK158710T] yielded a viability at 28.5 h, 10 µM of 100%. Molecule `Cc1onc(-c2ccccc2)c1C(=O)N1CCC(C(N)=O)CC1` [CBK158721] has a viability at 28.5 h, 10 µM of 84.4%. `CCN(CC)C(=O)CN(CCc1ccc(OC)c(OC)c1)C(=O)NCCN1CCOCC1` [CBK158734] showed a viability at 28.5 h, 10 µM of 93.1%. In the case of `CCN(CC)C(=O)CN(CCc1ccc(OC)c(OC)c1)C(=O)NCc1ccc(Cl)cc1` [CBK158742], the viability at 28.5 h, 10 µM is reported as 110%. In the case of `COc1ccc(CCN(Cc2ccc(Cl)c(Cl)c2)C(=O)Nc2cccnc2)cc1OC` [CBK158797], the viability at 28.5 h, 10 µM is reported as 96.1%. `CCN(CC)CCN(C(=O)NCCCSC)C(C)c1ccc(OC)c(OC)c1` (stereo not drawn) [CBK158803] showed a viability at 28.5 h, 10 µM of 94.3%. Molecule `CC(=O)Nc1ccc(-c2ccc(C(=O)NCc3cccnc3)cn2)cc1` [CBK158842] has a viability at 28.5 h, 10 µM of 96.9%. Work on `CCN(CC)C(=O)c1ccc(-c2ccc(NC(C)=O)cc2)nc1` [CBK158850] yielded a viability at 28.5 h, 10 µM of 101%. Work on `COc1cc(CNC(=O)c2ccc(-c3ccc(NC(C)=O)cc3)nc2)cc(OC)c1OC` [CBK158851] yielded a viability at 28.5 h, 10 µM of 100%. With `CC(=O)Nc1ccc(-c2ccc(C(=O)NC3CC3)cn2)cc1` [CBK158854] the viability at 28.5 h, 10 µM was 84.9%. In the case of `CC(=O)Nc1ccc(-c2ccc(C(=O)NCc3ccc(C(C)C)cc3)cn2)cc1` [CBK158857], the viability at 28.5 h, 10 µM is reported as 101%. `CC(=O)Nc1ccc(-c2ccc(C(=O)NCc3ccc(S(C)(=O)=O)cc3)cn2)cc1` [CBK158860] gave a viability at 28.5 h, 10 µM of 92.1%. For `CCOC(=O)N1CCC(NC(=O)N(Cc2cccnc2)Cc2ccc3c(c2)OCO3)CC1` [CBK158897], the viability at 28.5 h, 10 µM was 95.4%. Work on `CSCCCNC(=O)N1CCN(CCc2ccccc2)CC1` [CBK158900] yielded a viability at 28.5 h, 10 µM of 81.6%. In the case of `O=C(NCCN1CCOCC1)N1CCN(CCc2ccccc2)CC1` [CBK158908], the viability at 28.5 h, 10 µM is reported as 85.5%. Work on `COc1cc(CNC(=O)N2CCN(CCc3ccccc3)CC2)cc(OC)c1OC` [CBK158910] yielded a viability at 28.5 h, 10 µM of 91.8%. Molecule `NC(=O)c1ccc(NC(=O)N2CCN(CCc3ccccc3)CC2)cc1` [CBK158924] has a viability at 28.5 h, 10 µM of 95.3%. In the case of `COc1cc(NC(=O)N2CCN(CCc3ccccc3)CC2)cc(OC)c1OC` [CBK158933], the viability at 28.5 h, 10 µM is reported as 100%. With `O=C(NC1CCc2ccccc21)N1CCN(CCc2ccccc2)CC1` (stereo not drawn) [CBK158936] the viability at 28.5 h, 10 µM was 96.1%. With `CCOC(=O)N1CCC(NC(=O)N2CCN(CCc3ccccc3)CC2)CC1` [CBK158938] the viability at 28.5 h, 10 µM was 89.8%. Molecule `CCN(CC)CCN(C(=O)NCCc1c[nH]c2ccc(OC)cc12)C(C)c1ccc(OC)c(OC)c1` (stereo not drawn) [CBK158948] has a viability at 28.5 h, 10 µM of 90.4%. Work on `COc1ccc(C(C)N(CCN2CCOCC2)C(=O)NCc2cccc3ccccc23)cc1OC` (stereo not drawn) [CBK158984] yielded a viability at 28.5 h, 10 µM of 96.4%. Molecule `CCN(CC)CCN(Cc1ccc2c(c1)OCO2)C(=O)Nc1ccc2[nH]ccc2c1` [CBK159037] has a viability at 28.5 h, 10 µM of 96.7%. With `COc1ccc(CN(CCCN2CCOCC2)C(=O)NCc2ccc(C#N)cc2)cc1OC` [CBK159125] the viability at 28.5 h, 10 µM was 89%. Work on `CCN(CC)c1ccc(NC(=O)N(CCCN2CCOCC2)Cc2ccc(OC)c(OC)c2)cc1` [CBK159168] yielded a viability at 28.5 h, 10 µM of 91.1%. Molecule `COc1ccc(CN(CCN(C)C)C(=O)NCc2ccc(Cl)cc2)cc1OC` [CBK159303] has a viability at 28.5 h, 10 µM of 87.7%. With `CCN(CC)c1ccc(CN(CCCN(C)C)C(=O)NCC2CCCCC2)cc1` [CBK159392] the viability at 28.5 h, 10 µM was 106%. In the case of `O=C(NCc1ccc(Cl)cc1)N(Cc1cccnc1)Cc1ccc2c(c1)OCO2` [CBK159449], the viability at 28.5 h, 10 µM is reported as 97%. `O=C(NCc1c(Cl)cccc1Cl)N(Cc1cccnc1)Cc1ccc2c(c1)OCO2` [CBK159450] gave a viability at 28.5 h, 10 µM of 96.8%. `COc1ccc(CNC(=O)N(Cc2cccnc2)Cc2ccc3c(c2)OCO3)cc1OC` [CBK159456] showed a viability at 28.5 h, 10 µM of 87.3%. `COc1ccc(-c2csc(CC(=O)O)n2)cc1` [CBK159469] gave a viability at 28.5 h, 10 µM of 85.4%.
